{
  "source": "patent US20050282893A1",
  "about": "(priority 2004, published 2005)",
  "key": {"[1]": {"test_system": "telomere length in FaDu cells", "experiment": "Telomere length (terminal restriction fragment) by TALA in transfected FaDu cells", "format": "cell-based, human", "excerpt": "Measurement of telomere length in cultured cells. Two methods were used to measure telomere length. The first method was a solution hybridization based telomere amount and length assay (TALA) (Gan, et al., Pharm. Res., 18:1655-1659, 2001) that measures the mean length of the terminal restriction fragments (TRF). The second method was fluorescence in situ hybridization (FISH) to detect telomere signal and to estimate the approximate length of individual telomere structures at the end of chromosomes. The FISH method is as described in U.S. patent application Ser. No. 09/587,662 and Gan, et al., 2001.\n(§1) Effect of hTR antisense on telomere length and telomerase activity. Telomere length (referred to as terminal restriction fragment) was measured using the TALA method. Telomerase activity was measured using the improved TRAP method."}, "FaDu cells": {"test_system": "FaDu cells", "experiment": "Cell growth of FaDu cells transfected with hTR antisense or sense", "format": "cell-based, human", "excerpt": "hTR antisense inhibits telomerase. The antisense study consisted of the following steps: (a) construction of a sense and antisense to the RNA portion of the human telomerase (hTR), (b) stable transfection of cells with the hTR antisense (or hTR sense control), and (c) determination of the ability of the hTR antisense to inhibit telomerase activity and induce telomere shortening. The methodologies are detailed in the art, for example, by Mo et al., Cancer Res. 2003.\nTransfection procedures. Transfection of the antisense construct used an IPTG-inducible mammalian expression system. The resulting clones were used for experiments.\nEffect of hTR antisense on cell growth. Table 2 summarizes the results which show a slower growth rate for the antisense +IPTG cells (i.e., cells that were transfected by hTR antisense and treated with IPTG to induce the expression of […]) compared to cells that had either not been transfected with the antisense, not transfected but treated with IPTG, transfected with the sense and treated with IPTG, or transfected with the antisense but without the IPTG induction (i.e., control, +IPTG, +sense +IPTG, and antisense)."}, "human telomerase": {"test_system": "human telomerase", "experiment": "Telomerase activity by improved TRAP in transfected FaDu cells", "format": "cell-based", "experimental": "Inhibition of telomerase activity in cell lysates and intact cells. The modified Telomeric Repeat Amplification Protocol (TRAP) assay (Gan, et al., Pharm. Res., 18:488-493, 2001) was used to detect telomerase activity in cell lysate. The telomerase activity in intact cells was measured using intracellular TRAP, as follows. Cells (1×10^5) were washed twice with PBS and centrifuged. The cell pellet was resuspended in 100 μl of serum-free RPMI 1640 containing 5 u/ml of Streptolysin O, 2 μM of TS primer, and 50 μM of dNTP, and incubated at room temperature for 5 min. The enzyme streptolysin O was used to increase the cell membrane permeability to the TS primer. Upon entering a cell, the TS primer was elongated by the intracellular telomerase in situ. The elongated TS primer was then isolated from the cells and used as the template for PCR amplification. Then 200 μl of RPMI 1640 medium containing 10% FBS was added to the cells to stop the permeating process. […] The cells were then lyzed and the cell lysates, which contained the already extended TS primer, was directly analyzed by TRAP.\nas §1"}},
  "data": [
    {"smiles": "CC(C)S[C@@H]1O[C@H](CO)[C@H](O)[C@H](O)[C@H]1O", "note": "[+IPTG]", "values": [
      {"measurement": "Terminal restriction fragment", "setting": "[1]", "result": 2.91, "unit": "kb"},
      {"measurement": "Doubling time", "setting": "FaDu cells", "result": 23, "unit": "h"},
      {"measurement": "Telomerase activity, % of control", "setting": "human telomerase", "result": "98.9 % of control"}
    ]}
  ]
}
